Data from patent US10770169B2, “Method of providing a treatment to a subject based on a dynamic pathway map” (THE REGENTS OF THE UNIVERSITY OF CALIFORNIA, priority 2010, dated 2020).

Tested on: panel of 55 breast cancer cell lines
Test: Cell growth inhibition assay (Cell Titer Glo, 72 h, 9 doses; GI50, TGI, LC50)
Assay type: cell-based, human
Details: value is the negative log10 of mol/L

`CC(C)Oc1ccc(C(=O)N[C@H](CNC(=O)CN(C)C)Cc2ccc(-c3cn4cccc([C@H](C)O)c4n3)cc2)cc1Cl` [GSK923295] gave a GI50 (AU565 cell line, censored GI50 values) of 7.62, a GI50 (BT474 cell line, censored GI50 values) of 5.42 and a GI50 (BT483 cell line, censored GI50 values) of 6.44. It also gave a GI50 (CAMA1 cell line, censored GI50 values) of 7.33, a GI50 (HCC38 cell line, censored GI50 values) of 7.32 and a GI50 (HCC70 cell line, censored GI50 values) of 7.68. It also gave a GI50 (HCC202 cell line, censored GI50 values) of 7.77, a GI50 (HCC1143 cell line, censored GI50 values) of 6.77 and a GI50 (HCC1187 cell line, censored GI50 values) of 7.52. The GI50 (HCC1395 cell line, censored GI50 values) was 7.33, the GI50 (HCC1419 cell line, censored GI50 values) was 5.72 and the GI50 (HCC1428 cell line, censored GI50 values) was 5.21. It also gave a GI50 (HCC1500 cell line, censored GI50 values) of 7.28, a GI50 (HCC1806 cell line, censored GI50 values) of 7.34 and a GI50 (HCC1937 cell line, censored GI50 values) of 7.20. The GI50 (HCC1954 cell line, censored GI50 values) was 7.62, the GI50 (HCC2185 cell line, censored GI50 values) was 7.43 and the GI50 (HCC3153 cell line, censored GI50 values) was 7.22. The GI50 (MCF7 cell line, censored GI50 values) was 5.90, the GI50 (MDAMB134VI cell line, censored GI50 values) was 5.50 and the GI50 (MDAMB157 cell line, censored GI50 values) was 7.50. The GI50 (MDAMB175VII cell line, censored GI50 values) was 6.76, the GI50 (MDAMB231 cell line, censored GI50 values) was 7.34 and the GI50 (MDAMB361 cell line, censored GI50 values) was 7.42. It also gave a GI50 (MDAMB415 cell line, censored GI50 values) of 7.28, a GI50 (MDAMB436 cell line, censored GI50 values) of 7.59 and a GI50 (MDAMB453 cell line, censored GI50 values) of 6.96. The GI50 (MDAMB468 cell line, censored GI50 values) was 7.61, the GI50 (SKBR3 cell line, censored GI50 values) was 7.34 and the GI50 (SUM149PT cell line, censored GI50 values) was 7.17. For the same molecule, the GI50 (SUM159PT cell line, censored GI50 values) was 7.43, the GI50 (SUM185PE cell line, censored GI50 values) was 5.42 and the GI50 (SUM1315MO2 cell line, censored GI50 values) was 7.44. It also gave a GI50 (cell line 600MPE) of 4.48, a GI50 (cell line AU565) of 7.62 and a GI50 (cell line BT474) of 5.42. It also gave a GI50 (cell line BT483) of 6.44, a GI50 (cell line CAMA1) of 7.33 and a GI50 (cell line HCC38) of 7.32. It also gave a GI50 (cell line HCC70) of 7.68, a GI50 (cell line HCC202) of 7.77 and a GI50 (cell line HCC1143) of 6.77. The GI50 (cell line HCC1187) was 7.52, the GI50 (cell line HCC1395) was 7.33 and the GI50 (cell line HCC1419) was 5.72. It also gave a GI50 (cell line HCC1428) of 5.21, a GI50 (cell line HCC1500) of 7.28 and a GI50 (cell line HCC1806) of 7.34. It also gave a GI50 (cell line HCC1937) of 7.20, a GI50 (cell line HCC1954) of 7.62 and a GI50 (cell line HCC2185) of 7.43. For the same molecule, the GI50 (cell line HCC3153) was 7.22, the GI50 (cell line MCF7) was 5.90 and the GI50 (cell line MDAMB134V) was 5.50. For the same molecule, the GI50 (cell line MDAMB157) was 7.50, the GI50 (cell line MDAMB175V) was 6.76 and the GI50 (cell line MDAMB231) was 7.34. It also gave a GI50 (cell line MDAMB361) of 7.42, a GI50 (cell line MDAMB415) of 7.28 and a GI50 (cell line MDAMB436) of 7.59. For the same molecule, the GI50 (cell line MDAMB453) was 6.96, the GI50 (cell line MDAMB468) was 7.61 and the GI50 (cell line SKBR3) was 7.34. The GI50 (cell line SUM52PE) was 7.64, the GI50 (cell line SUM149PT) was 7.17 and the GI50 (cell line SUM159PT) was 7.43. The GI50 (cell line SUM185PE) was 5.42, the GI50 (cell line SUM1315MO) was 7.44 and the GI50 (cell line UACC812) was 7.92. The GI50 (cell line UACC893) was 7.91, the GI50 (cell line ZR75B) was 7.15 and the GI50 (cell line ZR751) was 6.92. It also gave a GI50 (cell line ZR7530) of 7.68.
